The nature of data set [1]: Binding affinity to influenza virus PB2 transformed into Escherichia coli rosseta competent cells by surface plasmon resonance analysis. Also noted: species or system unidentified influenza virus.
For the next data set, the system named is Influenza A virus. Briefly: Antiviral activity against Influenza A virus (A/PR/8/34 (H1N1)) infected in MDCK cells assessed as reduction in viral replication preincubated for 1 hr followed by compound washout and measured after 48 hrs. It counts as functional, organism-based, A/Puerto Rico/8/1934(H1N1).
A short description of data set [2]: Binding affinity to influenza virus PB2 transformed into Escherichia coli rosseta competent cells by isothermal titration calorimetry. Also noted: species or system unidentified influenza virus.
Data set [3] can be described thus: Cytotoxicity against MDCK cells assessed as reduction in cell viability measured after 72 hrs by alamar blue assay. It counts as cell-based, Canis lupus familiaris. To be noted: dog.
The test system of data set [4] is unidentified influenza virus. Briefly: Binding affinity to influenza virus PB2 transformed into Escherichia coli rosseta competent cells assessed as binding constant by isothermal titration calorimetry.
Where [5] appears, read: Influenza A virus, A/Puerto Rico/8/1934(H1N1), MDCK.

pEC50, pKd: −log10 of the molar value.

Consider `CC1CCCCC1Nc1nc(-c2c[nH]c3ncc(F)cc23)cn(C)c1=O` (stereo not given), for which, in data set [1], the pKd was 5.28.
On the same count and under the same terms, as for `O=C(O)[C@H]1C2CCC(CC2)[C@@H]1Nc1nc(-c2c[nH]c3ncc(F)cc23)cn(-c2ccccc2)c1=O`, the figure is 6.00; as for `Cc1cc(C)cc(-n2cc(-c3c[nH]c4ncc(F)cc34)nc(N[C@H]3C4CCC(CC4)[C@@H]3C(=O)O)c2=O)c1`, 5.31; as for `Cn1cc(-c2c[nH]c3ncc(F)cc23)nc(NCCCN2CCOCC2)c1=O`, under 4.30.
Turning to `O=C(O)[C@H]1C2CCC(CC2)[C@@H]1Nc1nc(-c2c[nH]c3ncc(F)cc23)ncc1F` [PIMODIVIR], in the data set on Influenza A virus (setting [5]), the pEC50 was 8.70. Also, the pKd in data set [1] is 7.15; in data set [2] it was 7.30. The CC50 at 72 h in data set [3] is over 100 µM.
`Cn1cc(-c2c[nH]c3ncc(F)cc23)nc(N[C@H]2C3CCC(CC3)[C@@H]2C(=O)O)c1=O` had a pKd in data set [1] of 6.57.
Still for that read-out and setting: the value for `CCOc1ccc(-n2cc(-c3c[nH]c4ncc(F)cc34)nc(N[C@H]3C4CCC(CC4)[C@@H]3C(=O)O)c2=O)cc1` was 5.21.
In data set [1], `O=C(O)[C@H]1C2CCC(CC2)[C@@H]1Nc1nc(-c2c[nH]c3ncc(F)cc23)cn(CC(F)(F)F)c1=O` had a pKd of 6.77.
In turn, `O=C(O)[C@H]1C2CCC(CC2)[C@@H]1Nc1nc(-c2c[nH]c3ncc(F)cc23)cn(-c2ccc(C(F)(F)F)cc2)c1=O` gave a pKd in data set [1] of 5.15.
On the same count and under the same terms, the value for `Cn1cc(-c2c[nH]c3ncc(F)cc23)nc(N[C@@H](Cc2ccccc2)C(N)=O)c1=O` was 4.65; that for `O=C(O)[C@H]1C2CCC(CC2)[C@@H]1Nc1nc(-c2c[nH]c3ncc(F)cc23)cn(Cc2cccs2)c1=O` was 5.98.
Same read-out and setting: the value for `COc1ccc(-n2cc(-c3c[nH]c4ncc(F)cc34)nc(N[C@H]3C4CCC(CC4)[C@@H]3C(=O)O)c2=O)cc1` was 5.41; that for `Cn1cc(-c2c[nH]c3ncc(F)cc23)nc(NCCc2cccs2)c1=O` was under 4.30.
In turn, `O=C(O)[C@H]1C2CCC(CC2)[C@@H]1Nc1nc(-c2c[nH]c3ncc(F)cc23)cn(C2CC2)c1=O` gave a negative-log Kd (pKd) in data set [1] of 6.49.
On to `CC(C1CC1)n1cc(-c2c[nH]c3ncc(F)cc23)nc(N[C@H]2C3CCC(CC3)[C@@H]2C(=O)O)c1=O` (stereo not given in full), for which the pKd in data set [1] is 6.28.
For `NC(=O)c1ncn([C@@H]2O[C@H](CO)[C@@H](O)[C@H]2O)n1` [RIBAVIRIN], the pEC50 in the data set with Influenza A virus is 5.04. In data set [3], the CC50 at 72 h was over 100 µM.
Compound `O=C(O)[C@H]1C2CCC(CC2)[C@@H]1Nc1nc(-c2c[nH]c3ncc(F)cc23)cn(-c2ccc(F)c(F)c2)c1=O` showed a pKd in data set [1] of 5.27.
`O=C(O)[C@H]1C2CCC(CC2)[C@@H]1Nc1nc(-c2c[nH]c3ncc(F)cc23)cn(C2CCCC2)c1=O` showed a pKd in data set [1] of 6.31.
`CCCn1cc(-c2c[nH]c3ncc(F)cc23)nc(N[C@H]2C3CCC(CC3)[C@@H]2C(=O)O)c1=O` gave a pKd in data set [1] of 6.49.
Consider `O=C(O)[C@H]1C2CCC(CC2)[C@@H]1Nc1nc(-c2c[nH]c3ncc(F)cc23)cn(C2CCCCC2)c1=O`, for which the pKd in data set [1] was 6.13.
Same read-out and setting: as for `Cn1cc(-c2c[nH]c3ncc(F)cc23)nc(NC23CC4CC(CC(O)(C4)C2)C3)c1=O`, the figure is 5.69; as for `CC(C)(C)C1CCC(n2cc(-c3c[nH]c4ncc(F)cc34)nc(N[C@H]3C4CCC(CC4)[C@@H]3C(=O)O)c2=O)CC1` (stereo not given in full), 4.79; as for `CC(C)C(CC(=O)O)Nc1nc(-c2c[nH]c3ncc(F)cc23)cn(C)c1=O` (stereo not given), 5.46.
In turn, `O=C(O)[C@H]1C2CCC(CC2)[C@@H]1Nc1nc(-c2c[nH]c3ncc(F)cc23)cn(C2CCC2)c1=O` had a pKd in data set [1] of 6.33.
In data set [1], `O=C(O)[C@H]1C2CCC(CC2)[C@@H]1Nc1nc(-c2c[nH]c3ncc(F)cc23)cn(Cc2cccc(C(F)(F)F)c2)c1=O` gave a pKd of 5.67.
Consider `O=C(O)[C@H]1C2CCC(CC2)[C@@H]1Nc1nc(-c2c[nH]c3ncc(F)cc23)cn(CC(F)F)c1=O`, for which, in data set [1], the pKd is 6.80.
As for `Cn1cc(-c2c[nH]c3ncc(F)cc23)nc(NC[C@@H]2CCCO2)c1=O`, the negative logarithm of the Kd (pKd) in data set [1] is 4.99.
`C[C@H](Nc1nc(-c2c[nH]c3ncc(F)cc23)cn(C)c1=O)c1cccc(F)c1`: the pKd in data set [1] is 4.59.
In the case of `CCn1cc(-c2c[nH]c3ncc(F)cc23)nc(N[C@H]2C3CCC(CC3)[C@@H]2C(=O)O)c1=O`, the pEC50 with Influenza A virus (setting [5]) is 5.99. For the same compound, the pKd in data set [1] was 6.96; in data set [2], 6.72. Besides, the CC50 at 72 h in data set [3] is over 100 µM. Moreover, the K in data set [4] came out at 5.19 ×10⁶ /M.
`O=C(O)Cn1cc(-c2c[nH]c3ncc(F)cc23)nc(N[C@H]2C3CCC(CC3)[C@@H]2C(=O)O)c1=O`: the pKd in data set [1] was 6.30.
`Cn1cc(-c2c[nH]c3ncc(F)cc23)nc(NC[C@H]2CCCO2)c1=O`: in data set [1], the pKd is 5.08.
In data set [1], `CC[C@H](Nc1nc(-c2c[nH]c3ncc(F)cc23)cn(C)c1=O)c1ccccc1` had a pKd of 4.99.

Values taken from ChEMBL document CHEMBL4390701, “Discovery of 5-(5-fluoro-1H-pyrrolo[2,3-b]pyridin-3-yl)pyrazin-2(1H)-one derivatives as new potent PB2 inhibitors” (Bioorg Med Chem Lett, 2019).
